The NIST ThermoML archive (doi:10.1016/j.jct.2017.05.001)
Numbers after ± are expanded uncertainties.

Assay: wn = mass fraction of the nth substance listed
Conditions: Liquid; for viscosity: Falling or rolling sphere viscometry; for mass density: Vibrating tube method

OCCNCCO [diethanolamine] + O
Conditions	mass density, w1 = 0.0993 [kg/m3]	mass density, w1 = 0.2 [kg/m3]	mass density, w1 = 0.3002 [kg/m3]	mass density, w1 = 0.3997 [kg/m3]	viscosity, w1 = 0.0993 [mPa·s]	viscosity, w1 = 0.2 [mPa·s]	viscosity, w1 = 0.3002 [mPa·s]	viscosity, w1 = 0.3997 [mPa·s]
373.15 K, 30000 kPa	981.4 ± 0.7	991.5 ± 0.7	1001.6 ± 0.7	1012 ± 0.7	0.3689 ± 0.012	0.4761 ± 0.016	0.6417 ± 0.021	0.9 ± 0.03
373.15 K, 40000 kPa	985.7 ± 0.7	995.6 ± 0.7	1005.7 ± 0.7	1016 ± 0.7	0.3724 ± 0.012	0.482 ± 0.016	0.6515 ± 0.021	0.9123 ± 0.03
373.15 K, 50000 kPa	989.7 ± 0.7	999.5 ± 0.7	1009.5 ± 0.7	1019.8 ± 0.7	–	–	–	–
373.15 K, 60000 kPa	993.6 ± 0.7	1003.5 ± 0.7	1013.4 ± 0.7	1023.6 ± 0.7	0.3807 ± 0.013	0.492 ± 0.016	0.6676 ± 0.022	0.9445 ± 0.031
373.15 K, 70000 kPa	997.5 ± 0.7	1007.3 ± 0.7	1017.2 ± 0.7	1027.3 ± 0.7	–	–	–	–
373.15 K, 80000 kPa	1001.4 ± 0.7	1011.1 ± 0.7	1020.9 ± 0.7	1031 ± 0.7	0.3871 ± 0.013	0.5046 ± 0.017	0.6851 ± 0.023	0.9763 ± 0.032
373.15 K, 90000 kPa	1005.1 ± 0.7	1014.7 ± 0.7	1024.4 ± 0.7	1034.5 ± 0.7	–	–	–	–
373.15 K, 100000 kPa	1008.8 ± 0.7	1018.3 ± 0.7	1028 ± 0.7	1038 ± 0.7	0.3943 ± 0.013	0.5153 ± 0.017	0.7019 ± 0.023	1.003 ± 0.033
373.15 K, 110000 kPa	1012.4 ± 0.7	1021.9 ± 0.7	1031.5 ± 0.7	1041.4 ± 0.7	–	–	–	–
373.15 K, 120000 kPa	1015.9 ± 0.7	1025.3 ± 0.7	1034.9 ± 0.7	1044.8 ± 0.8	–	–	–	–
373.15 K, 130000 kPa	1019.4 ± 0.7	1028.7 ± 0.7	1038.2 ± 0.7	1048.1 ± 0.8	–	–	–	–
373.15 K, 140000 kPa	1022.7 ± 0.7	1032 ± 0.7	1041.5 ± 0.8	1051.3 ± 0.8	–	–	–	–
393.15 K, 100 kPa	952.6 ± 0.7	962.8 ± 0.7	972.9 ± 0.7	983.2 ± 0.7	–	–	–	–
393.15 K, 500 kPa	952.9 ± 0.7	963.2 ± 0.7	973.2 ± 0.7	983.5 ± 0.7	–	–	–	–
393.15 K, 1000 kPa	953.1 ± 0.7	963.3 ± 0.7	973.4 ± 0.7	983.7 ± 0.7	–	–	–	–
393.15 K, 2000 kPa	953.6 ± 0.7	963.8 ± 0.7	973.9 ± 0.7	984.2 ± 0.7	–	–	–	–
393.15 K, 5000 kPa	955.1 ± 0.7	965.2 ± 0.7	975.3 ± 0.7	985.6 ± 0.7	0.2926 ± 0.0096	0.3644 ± 0.012	0.4675 ± 0.015	0.6194 ± 0.02
393.15 K, 10000 kPa	957.5 ± 0.7	967.7 ± 0.7	977.7 ± 0.7	988 ± 0.7	0.2943 ± 0.0097	0.3676 ± 0.012	0.4721 ± 0.015	0.6265 ± 0.021
393.15 K, 15000 kPa	959.9 ± 0.7	969.9 ± 0.7	980 ± 0.7	990.3 ± 0.7	0.2964 ± 0.0097	0.37 ± 0.012	0.4778 ± 0.016	0.6495 ± 0.021
393.15 K, 20000 kPa	962.3 ± 0.7	972.3 ± 0.7	982.4 ± 0.7	992.7 ± 0.7	0.2989 ± 0.0098	0.3724 ± 0.012	0.4809 ± 0.016	0.6555 ± 0.022
393.15 K, 25000 kPa	–	–	–	–	0.301 ± 0.0099	0.3748 ± 0.012	0.4848 ± 0.016	0.6626 ± 0.022
393.15 K, 30000 kPa	966.8 ± 0.7	976.8 ± 0.7	986.9 ± 0.7	997.1 ± 0.7	0.3024 ± 0.0099	0.3769 ± 0.012	0.4908 ± 0.016	0.6682 ± 0.022
393.15 K, 40000 kPa	971.3 ± 0.7	981.3 ± 0.7	991.2 ± 0.7	1001.4 ± 0.7	0.3047 ± 0.01	0.3818 ± 0.013	0.4967 ± 0.016	0.681 ± 0.022
393.15 K, 50000 kPa	975.4 ± 0.7	985.4 ± 0.7	995.3 ± 0.7	1005.4 ± 0.7	–	–	–	–
393.15 K, 60000 kPa	979.7 ± 0.7	989.6 ± 0.7	999.4 ± 0.7	1009.6 ± 0.7	0.3113 ± 0.01	0.3919 ± 0.013	0.5122 ± 0.017	0.7072 ± 0.023
393.15 K, 70000 kPa	984 ± 0.7	993.8 ± 0.7	1003.6 ± 0.7	1013.6 ± 0.7	–	–	–	–
393.15 K, 80000 kPa	987.9 ± 0.7	997.6 ± 0.7	1007.3 ± 0.7	1017.3 ± 0.7	0.3178 ± 0.01	0.4017 ± 0.013	0.527 ± 0.017	0.7305 ± 0.024
393.15 K, 90000 kPa	991.7 ± 0.7	1001.5 ± 0.7	1011.2 ± 0.7	1021.2 ± 0.7	–	–	–	–
393.15 K, 100000 kPa	995.5 ± 0.7	1005.2 ± 0.7	1014.8 ± 0.7	1024.8 ± 0.7	0.3233 ± 0.011	0.4114 ± 0.013	0.5417 ± 0.018	0.7538 ± 0.025
393.15 K, 110000 kPa	999.4 ± 0.7	1008.9 ± 0.7	1018.5 ± 0.7	1028.5 ± 0.7	–	–	–	–
393.15 K, 120000 kPa	1003.1 ± 0.7	1012.6 ± 0.7	1022.1 ± 0.7	1032 ± 0.7	–	–	–	–
393.15 K, 130000 kPa	1006.6 ± 0.7	1016.1 ± 0.7	1025.5 ± 0.7	1035.4 ± 0.7	–	–	–	–
393.15 K, 140000 kPa	1010.1 ± 0.7	1019.5 ± 0.7	1029.1 ± 0.7	1038.9 ± 0.8	–	–	–	–
